Where “and” joins values, the source holds several entries; their conditions need not be identical. Equal entries are not always repeated.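 In this assay, cells in 96-well plates receive the compound at five concentrations for 48 hours. Endpoints are linearly interpolated between the surrounding concentrations. GI50 = concentration required for 50% inhibition of growth.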 Calls of active or inactive are those of the source. Cut-off read from the data, not from the text of the source: active = GI50 up to about 1.1 µM and inactive = higher. Where only a bound is given, the exact number is not on record here.

The source of these data is ChEMBL document CHEMBL1201862, “PubChem BioAssay data set” (2004).

Some test systems named below: DLD-1; DMS-273; KM-20L2; M19-MEL; RXF 631; XF498; DMS-114; HOP-18; BT-549.
Common to all, as to experiment: NCI anticancer screen, dose series, 48 h

As for `CC(C)(c1ccccc1)c1ccc(Oc2ccc3c(c2)-c2nc-3nc3[nH]c(nc4nc(nc5[nH]c(n2)c2ccc(Oc6ccc(C(C)(C)c7ccccc7)cc6)cc52)-c2cc(Oc5ccc(C(C)(C)c6ccccc6)cc5)ccc2-4)c2ccc(Oc4ccc(C(C)(C)c5ccccc5)cc4)cc32)cc1`, the GI50 with DLD-1 was > 100 µM (inactive); with DMS-273, > 100 µM (inactive); in the test on KM-20L2, > 100 µM (inactive); in the test with M19-MEL, > 100 µM (inactive); in the test on RXF 631, > 100 µM (inactive); in the test on XF498, 78 µM (inactive).

As for `O=C(/C=C/c1ccccc1O)c1ccccc1Cl`, the GI50 with DLD-1 was 50.1 µM (inactive); in the test with DMS-114 it was 21.3 µM (inactive); with DMS-273, 40.2 µM (inactive); in the test on HOP-18 it was 49.4 µM (inactive); with KM-20L2 it was > 100 µM (inactive); with M19-MEL, 64.6 µM (inactive). Further, the GI50 with RXF 631 is 52.7 µM (inactive); with XF498, 40.5 µM (inactive).

For `CCc1cccc(C(C)CC)c1/N=C(/NC(=O)c1ccccc1C(=O)N/C(=N/c1c(CC)cccc1C(C)CC)SC)SC` (configuration not stated), the GI50 in the test with DLD-1 was 58.5 µM (inactive); with HOP-18, 26.8 µM (inactive); in the test on KM-20L2, 28.4 µM (inactive); in the test with M19-MEL, 51.4 µM (inactive); in the test with RXF 631, 51.2 µM (inactive); with XF498, 48.4 µM (inactive).

With `COc1c(CC(C)=O)ccc2c1C(=O)c1ccc(C=O)c(OC(C)=O)c1C2=O`, the GI50 with DLD-1 is 3.62 µM (inactive); in the test with DMS-114, 12.8 µM (inactive); with DMS-273, 10.2 µM (inactive); in the test with HOP-18 it was 22.1 µM (inactive); in the test on KM-20L2, 14.9 µM (inactive); with RXF 631, 20.6 µM (inactive).

As to `CC(=O)N1c2ccccc2N(C(C)=O)C1c1ccc(C2N(C(C)=O)c3ccccc3N2C(C)=O)[nH]1`, the GI50 with DMS-114, in the test with DMS-273, in the test with KM-20L2, in the test on M19-MEL, with RXF 631 and in the test with XF498 was > 100 µM (inactive) in each case.

As to `Cc1ccc(S(=O)(=O)N/N=C/c2oc(-c3ccncc3)c(-c3ccncc3)c2[N+](=O)[O-])cc1`, the GI50 in the test on DLD-1, in the test on DMS-273, with HOP-18, in the test with KM-20L2, in the test with M19-MEL and with RXF 631 was > 100 µM (inactive) throughout. For the same molecule, the GI50 with XF498 was > 100 µM (inactive).

Take `CCN1C(=O)C(=CN)C(=O)N(CC)C1=O`: the GI50 with DLD-1 was > 100 µM (inactive); with DMS-114 it was > 100 µM (inactive); in the test on DMS-273 it was > 100 µM (inactive); in the test with HOP-18, 24.7 µM (inactive); in the test with KM-20L2, > 100 µM (inactive); in the test on M19-MEL it was > 100 µM (inactive). For the same molecule, in the test on RXF 631, the GI50 was > 100 µM (inactive).

In the case of `Clc1ccc(OCc2nnc3n2N=C(c2ccc(Br)cc2)CS3)cc1`, the GI50 in the test with DLD-1 is > 10 µM (inactive); with DMS-114, 13.1 µM (inactive); with DMS-273, 29.8 µM (inactive); with M19-MEL, 23.6 µM (inactive); in the test with RXF 631 it was > 10 µM (inactive); in the test on XF498, 4.24 µM (inactive).

With `CN1C(OCc2ccccc2)c2c(ccc3c2OCO3)C2C=Cc3cc4c(cc3C21)OCO4` (configuration not stated), the GI50 is 0.434 µM (active) in the test on DLD-1; 0.305 µM (active) in the test with DMS-114; 1.33 µM (inactive) in the test with HOP-18; 1.59 µM (inactive) with KM-20L2; 0.19 µM (active) in the test with M19-MEL; 0.841 µM (active) with RXF 631.

As to `C=CCO[C@H]1CC[C@@]2(C)C(CC[C@]3(C)C2CC=C2[C@@H]4[C@@H](C)C(C)CC[C@]4(C(=O)O)CCC23C)C1(C)C` (some centres not stated), the GI50 is 17.3 µM (inactive) with DLD-1; 16.7 µM (inactive) in the test on DMS-114; 22 µM (inactive) in the test on HOP-18; 17.3 µM (inactive) with KM-20L2; 17.7 µM (inactive) in the test on M19-MEL; 13.7 µM (inactive) with RXF 631. Further, in the test on XF498, the GI50 was 7.1 µM (inactive).

On to `COc1cccc2c1C(=O)c1c(O)c3c(c(O)c1C2=O)C[C@@](O)(C(=O)CO)C[C@@H]3OC1CC(N)C(O)C(C)O1` (some centres not stated), for which the GI50 in the test on BT-549 is 438 nM (active) and 255 nM (active); in the test on DMS-114, 0.0975 µM (active); in the test on DMS-273, 0.0883 µM (active); in the test with HOP-18, 0.478 µM (active); in the test on KM-20L2, 0.879 µM (active); in the test with M19-MEL, 0.2 µM (active). The GI50 in the test on RXF 631 is 0.912 µM (active).
